This note sets out measurements from patent publication US20030143645A1, “Quinone reductase 2 and aldehyde dehydrogenase as therapeutic targets” (priority 2001, published 2003).

This test has as its target T1, ALDH1 (Homo sapiens, UniProt P00352).
T1 construct: Purification of native ALDH1, QR2 and QR1; RBC extract was prepared as described above and applied to PQ-Sepharose; tissue Valley Biomedical (blood); host or cells: human red blood cells
T1 sequence (P00352 1-501): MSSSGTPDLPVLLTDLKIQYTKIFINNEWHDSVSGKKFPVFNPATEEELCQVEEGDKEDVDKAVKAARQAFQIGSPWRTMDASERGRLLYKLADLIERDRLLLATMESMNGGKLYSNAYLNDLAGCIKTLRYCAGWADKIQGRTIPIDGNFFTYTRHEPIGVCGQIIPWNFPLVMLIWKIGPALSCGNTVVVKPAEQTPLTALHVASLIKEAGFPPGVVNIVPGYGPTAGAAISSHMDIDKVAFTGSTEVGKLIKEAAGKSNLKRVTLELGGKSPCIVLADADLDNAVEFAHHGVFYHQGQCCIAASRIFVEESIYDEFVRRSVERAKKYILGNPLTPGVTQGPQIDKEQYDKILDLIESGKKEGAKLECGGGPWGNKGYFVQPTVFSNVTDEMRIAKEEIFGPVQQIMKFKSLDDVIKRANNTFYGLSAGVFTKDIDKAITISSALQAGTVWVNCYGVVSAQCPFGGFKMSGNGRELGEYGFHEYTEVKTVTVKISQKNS
Briefly: ALDH1 HPLC-based activity assay (Example 2). The note with it: physiological concentrations of NAD+. Type of test: biochemical. As to the method:
Purification of native ALDH1, QR2 and QR1. RBC extract was prepared as described above and applied to PQ-Sepharose equilibrated in buffer A. ALDH1 and QR2 were obtained by eluting the column with 5 mM b-NAD^+ and NMeH respectively. QR1 was purified from rabbit liver as previously described (Lind et al, Methods Enzymol. 186:287-301 (1990)). All enzymes were sequenced to confirm their identify and were >90% pure as judged by SDS-PAGE and silver staining.
ALDH1, QR2 and QR1 activity assays. ALDH1 activity was determined using an HPLC-based assay because of the co-absorbance of CQ and NADH at 340 nm. Reaction products were separated with a gradient of acetonitrile in 10 mM triethylamine acetic acid. CQ and NADH peaks were identified by their signature spectra using an online photodiode array detector. QR2 activity was assayed in triplicate with recombinant QR2 (at 96 ng/mL) by measuring the absorbance at 365 nm in a buffer containing 50 mM Tris-HCl, pH 8.5, 50 μM NMeH, 5-30 μM menadione, and 0.1% Triton X-100. […] QR2 K1 values were calculated using KinetAsyst II by fitting the experimental data to the equations of Cleland (Methods Enzymol. 63:103-138 (1979)). […] QR1 IC50 values were calculated using GraphPad Prism.
The quinolines inhibit ALDH1 and QR2. […] Because of the co-absorbance of NADH and CQ at 340 nm, an HPLC based assay was developed to determine the effects of CQ on ALDH1 activity.

Broadly, the IC50 is the point on the concentration scale where inhibition reaches its midpoint. Molecule `CCN(CC)CCCC(C)Nc1ccnc2cc(Cl)ccc12` (stereo not shown) [CQ, chloroquine] came in with an IC50 of 500 µM.
